Data from patent publication US20230129258A1, “HETEROTANDEM BICYCLIC PEPTIDE COMPLEXES” (BicycleTx Limited, priority 2019, published 2023).

Columns and labels:
[1] = biological target: T1, OX40 (Homo sapiens, UniProt P43489); experiment: Promega OX40 cell-activity assay (NF-kB luciferase, Jurkat) in co-culture with 4T1-D02 tumor cells; type: cell-based; conditions: co-culture with Nectin-4 positive 4T1-D02 cells
T1 construct: host or cells: OX40 Jurkat cells
T1 sequence (P43489 29-277): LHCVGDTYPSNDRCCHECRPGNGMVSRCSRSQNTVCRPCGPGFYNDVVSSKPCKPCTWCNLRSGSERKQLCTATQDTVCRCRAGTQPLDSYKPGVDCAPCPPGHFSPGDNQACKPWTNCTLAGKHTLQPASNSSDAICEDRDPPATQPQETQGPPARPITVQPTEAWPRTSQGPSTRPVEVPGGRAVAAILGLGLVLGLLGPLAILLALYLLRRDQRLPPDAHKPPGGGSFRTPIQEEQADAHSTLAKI
Method: Promega have developed an OX40 cell-activity assay that uses NF-κB luciferase luminescence as a read-out of OX40 activation in Jurkat cells (Promega CS197704). On the day of the experiment, prepare medium by thawing FBS and adding 5% FBS to RPMI-1640. Thaw OX40 Jurkat cells in the water-bath and then add 500 μl cells to 11.5 ml pre-warmed 5% FBS RPMI-1640 medium. Add 55 μl cells/well to white cell culture plates. Harvest tumor cells from culture. 4T1 is a Nectin-4 negative murine mammary gland epithelial cancer cell and it was genetically modified to express murine Nectin-4 on the cell surface (4T1 Nectin-4 positive; clone 411-D02). Tumor cells were cultured to 80% confluency in vitro in RPM11640 medium supplemented with 10% heat-inactivated FBS, 1× Penicillin/Streptomycin, 1× L-Glutamine, 20 mM HEPES and 1×NEAA (RPMI working medium). Tumor cells were trypsinized and washed two times at 1500 rpm for 5 minutes in RPM11640 working medium prewarmed to 37° C. Count cells and resuspend at 2,000,000 cells/mL in R5 media (for 10,000 cells/well). Add 5 μL of tumor cells per well. […]
Co-incubate cells together with agonists for 6 hours at 37° C., 5% CO2. […] Read luciferase signal on CLAIROStar plate-reader using the MARS program and normalize the fold induction relative to background (medium alone). […]

[2] = system: TNF family receptors OX40 and CD40; experiment: CD137 paralogue screening by SPR; type: binding; conditions: streptavidin captured peptide, soluble receptors
Method: CD137 Paralogue screening: Binding of streptavidin captured BCY13582 (biotinylated-BCY11863) was assessed using SPR against soluble TNF family receptors OX40 and CD40.

[3] = system: 5484 full-length human plasma membrane proteins and secreted proteins expressed in HEK293 cells; experiment: Retrogenix cell microarray off-target screening; type: binding; conditions: 1 μM test peptide
Method: Retrogenix microarray screening: Retrogenix's cell microarray technology was used to screen for specific off-target binding interactions of a biotinylated BCY11863 known as BCY13582.
Under these conditions, the test peptide was screened for binding against human HEK293 cells, individually expressing 5484 full-length human plasma membrane proteins and secreted proteins.
Each primary hit was re-expressed, along with two control receptors (TGFBR2 and EGFR), and re-tested with 1 μM BCY13582 test peptide, 1 μM BCY13582 test peptide in the presence of 100 μM BCY11863, and other positive and negative control treatments (FIG. 4). […] These were untethered and tethered forms of Nectin-4, and CD137—the primary targets.

[4] = biological target: T2, CD137 (Homo sapiens, UniProt Q07011); experiment: CD137 reporter assay (Promega CD137 luciferase reporter, Jurkat cells) in co-culture with Nectin-4-expressing tumor cells; type: cell-based; set-up: host or cells: Jurkat reporter cells; conditions: for EC50: Arithmetic mean EC50 (nM)
[5] = biological target: T2, CD137; experiment: CD137 reporter assay (Promega, Jurkat cells) in co-culture with PD-L1-expressing RKO cells; type: cell-based; set-up: host or cells: Jurkat reporter cells; conditions: read-out: Fold Induction over background
Method: Culture medium, referred to as R1 media, is prepared by adding 1% FBS to RPMI-1640 (component of Promega kit CS196005). Serial dilutions of test articles in R1 are prepared in a sterile 96 well-plate. Add 25 μL per well of test articles or R1 (as a background control) to designated wells in a white cell culture plate. Tumor cells* are harvested and resuspended at a concentration of 400,000 cells/mL in R1 media. Twenty five (25) μL/well of tumor cells are added to the white cell culture plate. Jurkat cells (Promega kit CS196005, 0.5 mL) are thawed in the water bath and then added to 5 ml pre-warmed R1 media. Twenty five (25) μL/well of Jurkat cells are then added to the white cell culture plate. Incubate the cells and test articles for 6 h at 37° C., 5% CO2. At the end of 6 h, add 75 μL/well Bio-Glo™ reagent (Promega) and incubate for 10 min before reading luminescence in a plate reader (Clariostar, BMG). The fold change relative to cells alone (Jurkat cells+Cell line used in co-culture) is calculated and plotted in GraphPad Prism as log(agonist) vs response to determine EC50 (nM) and Fold Induction over background (Max).
The tumor cell types used in co-culture for EphA2 are A549, PC3 and HT29. The tumor cell type used in co-culture for PD-L1 is RKO.

T2 sequence (Q07011 24-255): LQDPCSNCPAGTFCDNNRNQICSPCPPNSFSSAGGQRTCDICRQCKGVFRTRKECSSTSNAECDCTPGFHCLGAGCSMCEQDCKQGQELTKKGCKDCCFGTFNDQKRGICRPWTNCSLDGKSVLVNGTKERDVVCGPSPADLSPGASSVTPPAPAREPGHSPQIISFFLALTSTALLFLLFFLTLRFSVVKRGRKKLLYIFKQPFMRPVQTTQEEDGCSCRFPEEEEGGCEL

## CSCC[C@@H]1NC(=O)[C@@H]2CSCCC(=O)N3CN(CN(C3)C(=O)CCSC[C@H](NC(=O)CCOCCOCCOCCN(CCOCCOCCOCCn3cc(CCC(=O)NCCCC[C@H](NC(=O)[C@H](C)NC(=O)[C@@H]4CSCCC(=O)N5CN6CN(C5)C(=O)CCSC[C@H](NC(=O)[C@@H]5CCCN5C(=O)[C@H](CO)NC(=O)[C@H](Cc5ccc(O)cc5)NC(=O)[C@H](CC(C)C)NC(=O)[C@@H](NC(=O)[C@H](C)N)CSCCC6=O)C(=O)N[C@@H](Cc5c[nH]c6ccccc56)C(=O)N[C@@H](Cc5c[nH]cn5)C(=O)N5CCC[C@H]5C(=O)N[C@@H](CC(C)C)C(=O)N[C@@H](CC(N)=O)C(=O)N[C@@H](CC(=O)O)C(=O)N4)C(N)=O)nn3)CCOCCOCCOCCn3cc(CCC(=O)NCCCC[C@H](NC(=O)[C@H](C)NC(=O)[C@@H]4CSCCC(=O)N5CN6CN(C5)C(=O)CCSC[C@H](NC(=O)[C@@H]5CCCN5C(=O)[C@H](CO)NC(=O)[C@H](Cc5ccc(O)cc5)NC(=O)[C@H](CC(C)C)NC(=O)[C@@H](NC(=O)[C@H](C)N)CSCCC6=O)C(=O)N[C@@H](Cc5c[nH]c6ccccc56)C(=O)N[C@@H](Cc5c[nH]cn5)C(=O)N5CCC[C@H]5C(=O)N[C@@H](CC(C)C)C(=O)N[C@@H](CC(N)=O)C(=O)N[C@@H](CC(=O)O)C(=O)N4)C(N)=O)nn3)C(=O)N3CCC[C@H]3C(=O)N[C@@H](Cc3cccc4ccccc34)C(=O)N[C@H](CC(=O)O)C(=O)N2)C(=O)CCSC[C@@H](C(N)=O)NC(=O)[C@H](Cc2c[nH]c3ccccc23)NC(=O)[C@@H]2C[C@@H](O)CN2C(=O)[C@@H]2CCCN2C(=O)[C@H]([C@@H](C)O)NC(=O)[C@H](CO)NC(=O)[C@H](Cc2c[nH]c3ccccc23)NC(=O)[C@H](CC(=O)O)NC(=O)[C@H](CCCCNC(=N)N)NC1=O [BCY12967]
[1]
  OX40 agonism: potent OX40 agonism

## CCCC[C@@H]1NC(=O)[C@H](Cc2ccc(O)cc2)NC(=O)[C@@H]2CCCN2C(=O)[C@H](CC(=O)O)NC(=O)[C@H](C)NC(=O)[C@H](Cc2ccccc2)NC(=O)[C@@H]2CSCCC(=O)N3CN(CN(C3)C(=O)CCSC[C@@H](C(=O)N[C@@H](C)C(N)=O)NC1=O)C(=O)CCSC[C@H](NC(C)=O)C(=O)N[C@@H](CC(C)(C)C)C(=O)N1CCC[C@H]1C(=O)N[C@@H](CCC(=O)O)C(=O)N[C@H](CCCCNC(=O)CCc1cn(CCOCCOCCOCCN(CCOCCOCCOCCC(=O)N[C@H]3CSCCC(=O)N4CN5CN(C4)C(=O)CCSC[C@H](NC(=O)[C@@H](CC(=O)O)NC(=O)[C@H](Cc4cccc6ccccc46)NC(=O)[C@@H]4CCCN4C3=O)C(=O)N[C@@H](CCSC)C(=O)N[C@@H](CCCCNC(=N)N)C(=O)N[C@@H](CC(=O)O)C(=O)N[C@@H](Cc3c[nH]c4ccccc34)C(=O)N[C@@H](CO)C(=O)N[C@@H]([C@@H](C)O)C(=O)N3CCC[C@H]3C(=O)N3C[C@H](O)C[C@H]3C(=O)N[C@@H](Cc3c[nH]c4ccccc34)C(=O)N[C@H](C(N)=O)CSCCC5=O)CCOCCOCCOCCn3cc(CCC(=O)NCCCC[C@H]4NC(=O)[C@H](CCC(=O)O)NC(=O)[C@@H]5CCCN5C(=O)[C@H](CC(C)(C)C)NC(=O)[C@@H](NC(C)=O)CSCCC(=O)N5CN6CN(C5)C(=O)CCSC[C@H](NC(=O)[C@H](Cc5ccc(O)cc5)NC(=O)[C@@H]5CCCN5C4=O)C(=O)N[C@@H](Cc4ccccc4)C(=O)N[C@@H](C)C(=O)N[C@@H](CC(=O)O)C(=O)N4CCC[C@H]4C(=O)N[C@@H](Cc4ccc(O)cc4)C(=O)N[C@@H](CCCC)C(=O)N[C@H](C(=O)N[C@@H](CCCCNC(=O)CCOCCOCCOCCOCCOCCOCCOCCOCCOCCOCCOCCOCCNC(=O)CCCC[C@@H]4SC[C@@H]5NC(=O)N[C@@H]54)C(N)=O)CSCCC6=O)nn3)nn1)C(=O)N1CCC[C@H]1C(=O)N[C@@H](Cc1ccc(O)cc1)C(=O)N2 [BCY13582]
[2]
  binding to OX40 and CD40: concentration up to which no binding was seen: > 100 nM
[3]
  specific off-target interactions: No specific off-target interactions
[4]; co-culture with HT1376 (human), Table 1B
  EC50: 0.58 ± 0.27 nM
[4]; co-culture with MDA-MB-468 (human)
  EC50: 0.34 ± 0.02 nM
[4]; co-culture with HT1376, Table 2A
  Emax: 57 fold induction over background

## CCCC[C@@H]1NC(=O)[C@H](Cc2ccc(O)cc2)NC(=O)[C@@H]2CCCN2C(=O)[C@H](CC(=O)O)NC(=O)[C@H](C)NC(=O)[C@H](Cc2ccccc2)NC(=O)[C@@H]2CSCCC(=O)N3CN(CN(C3)C(=O)CCSC[C@@H](C(=O)N[C@@H](C)C(N)=O)NC1=O)C(=O)CCSC[C@H](NC(C)=O)C(=O)N[C@@H](CC(C)(C)C)C(=O)N1CCC[C@H]1C(=O)N[C@@H](CCC(=O)O)C(=O)N[C@H](CCCCNC(=O)CCc1cn(CCOCCOCCOCCOCCOCCOCCOCCOCCOCCOCCNC(=O)CCOCCN(CCOCCC(=O)NCCOCCOCCOCCOCCOCCOCCOCCOCCOCCOCCn3cc(CCC(=O)NCCCC[C@@H]4NC(=O)[C@H](CCC(N)=O)NC(=O)[C@@H]5CSCCC(=O)N6CN(CN(C6)C(=O)CCSC[C@@H](C(=O)N6CCC[C@H]6C(=O)N[C@@H](CO)C(=O)N[C@@H](Cc6c[nH]cn6)C(N)=O)NC(=O)[C@H](CC(C)C)NC(=O)[C@H](Cc6c[nH]cn6)NC(=O)[C@H](CC(C)C)NC4=O)C(=O)CCSC[C@H](NC(=O)[C@H](CCCCN)NC(=O)[C@H](CC(=O)O)NC(=O)[C@H](CO)NC(C)=O)C(=O)N[C@@H](CO)C(=O)N[C@@H](C)C(=O)NCC(=O)N[C@@H](Cc4c[nH]c6ccccc46)C(=O)N[C@@H](CC(C)C)C(=O)N[C@@H]([C@@H](C)O)C(=O)N[C@@H](CCSC)C(=O)N5)nn3)CCOCCC(=O)NCCOCCOCCOCCOCCOCCOCCOCCOCCOCCOCCn3cc(CCC(=O)NCCCC[C@H]4NC(=O)[C@H](CCC(=O)O)NC(=O)[C@@H]5CCCN5C(=O)[C@H](CC(C)(C)C)NC(=O)[C@@H](NC(C)=O)CSCCC(=O)N5CN6CN(C5)C(=O)CCSC[C@H](NC(=O)[C@H](Cc5ccc(O)cc5)NC(=O)[C@@H]5CCCN5C4=O)C(=O)N[C@@H](Cc4ccccc4)C(=O)N[C@@H](C)C(=O)N[C@@H](CC(=O)O)C(=O)N4CCC[C@H]4C(=O)N[C@@H](Cc4ccc(O)cc4)C(=O)N[C@@H](CCCC)C(=O)N[C@H](C(=O)N[C@@H](C)C(N)=O)CSCCC6=O)nn3)nn1)C(=O)N1CCC[C@H]1C(=O)N[C@@H](Cc1ccc(O)cc1)C(=O)N2 [BCY11780]
[5]
  fold induction: 13
